# Reference: ChEMBL document CHEMBL3885881, “DrugMatrix”
# Species: Rattus norvegicus
# Test: DrugMatrix - Regimen: Daily Repeat
# Format: toxicity, organism-based, Sprague-Dawley
# Design: regimen Daily Repeat, gender Male, age 6-8 weeks
# Conditions: in vivo, iv, vehicle 100 % SALINE; for URIC ACID / ALANINE AMINOTRANSFERASE / ALBUMIN / ALKALINE PHOSPHATASE / ASPARTATE AMINOTRANSFERASE / BLOOD UREA NITROGEN / CARBON DIOXIDE / CHLORIDE / CHOLESTEROL / CREATINE PHOSPHOKINASE / CREATININE / GLUCOSE / LIPASE / PHOSPHORUS / POTASSIUM / SODIUM / TOTAL BILIRUBIN / TOTAL PROTEIN: tissue Plasma; for ABSOLUTE BASOPHIL / ABSOLUTE EOSINOPHIL / ABSOLUTE LYMPHOCYTE / ABSOLUTE MONOCYTE / ABSOLUTE SEGMENTED NEUTROPHIL / BASOPHIL / EOSINOPHIL / ERYTHROCYTE COUNT / HEMATOCRIT / HEMOGLOBIN / LYMPHOCYTE / MEAN CORPUSCULAR HEMOGLOBIN / MEAN CORPUSCULAR HEMOGLOBIN CONCENTRATION / MONOCYTE / NEUTROPHIL / NUCLEATED RED BLOOD CELLS / PLATELET COUNT: tissue Blood
# [1] = 5 mg/kg, 120 h, dose level High, time 5 day
# [2] = […], 72 h, dose 1.5 mg/Kg, dose level Low, time 3 day
# [3] = […], 120 h, dose 1.5 mg/Kg, dose level Low, time 5 day
structure (smiles),measurement,setting,value
CCc1c2c(nc3ccc(OC(=O)N4CCC(N5CCCCC5)CC4)cc13)-c1cc3c(c(=O)n1C2)COC(=O)[C@]3(O)CC [IRINOTECAN],URIC ACID,"5 mg/kg, 72 h, dose level High, time 3 day",1.77 mg/dL
same,ABSOLUTE BASOPHIL,[1],0 CELLS/uL
same,ABSOLUTE EOSINOPHIL,[1],0 CELLS/uL
same,ABSOLUTE LYMPHOCYTE,[1],10356 CELLS/uL
same,ABSOLUTE MONOCYTE,[1],74 CELLS/uL
same,ABSOLUTE SEGMENTED NEUTROPHIL,[1],470 CELLS/uL
same,BASOPHIL,[1],0%
same,EOSINOPHIL,[1],0%
same,ERYTHROCYTE COUNT,[1],6.32 x10E6/uL
same,HEMATOCRIT,[1],37.73%
same,HEMOGLOBIN,[1],15.1 G/DL
same,LYMPHOCYTE,[1],95%
same,MEAN CORPUSCULAR HEMOGLOBIN,[1],23.93 pg
same,MEAN CORPUSCULAR HEMOGLOBIN CONCENTRATION,[1],40.07 G/DL
same,MONOCYTE,[1],0.67%
same,NEUTROPHIL,[1],4.33%
same,NUCLEATED RED BLOOD CELLS,[1],0 /100WBC
same,PLATELET COUNT,[1],1232.33 x10E3/uL
same,ALANINE AMINOTRANSFERASE,[1],38 u/L
same,ALBUMIN,[1],4.37 G/DL
same,ALKALINE PHOSPHATASE,[1],299.33 u/L
same,ASPARTATE AMINOTRANSFERASE,[1],100.33 u/L
same,BLOOD UREA NITROGEN,[1],21.33 mg/dL
same,CARBON DIOXIDE,[1],22.67 mmol/L
same,CHLORIDE,[1],100 MEQ/L
same,CHOLESTEROL,[1],65 mg/dL
same,CREATINE PHOSPHOKINASE,[1],991 u/L
same,CREATININE,[1],0.24 mg/dL
same,GLUCOSE,[1],171.67 mg/dL
same,LIPASE,[1],9.33 u/L
same,PHOSPHORUS,[1],12.93 mg/dL
same,POTASSIUM,[1],6.75 MEQ/L
same,SODIUM,[1],142.97 MEQ/L
same,TOTAL BILIRUBIN,[1],0.13 mg/dL
same,TOTAL PROTEIN,[1],6.67 G/DL
same,URIC ACID,[1],2.8 mg/dL
same,ABSOLUTE BASOPHIL,[2],0 CELLS/uL
same,ABSOLUTE EOSINOPHIL,[2],215 CELLS/uL
same,ABSOLUTE LYMPHOCYTE,[2],8779 CELLS/uL
same,ABSOLUTE MONOCYTE,[2],139.33 CELLS/uL
same,ABSOLUTE SEGMENTED NEUTROPHIL,[2],933.33 CELLS/uL
same,BASOPHIL,[2],0%
same,EOSINOPHIL,[2],2%
same,ERYTHROCYTE COUNT,[2],5.76 x10E6/uL
same,HEMATOCRIT,[2],36.73%
same,HEMOGLOBIN,[2],14.23 G/DL
same,LYMPHOCYTE,[2],87.33%
same,MEAN CORPUSCULAR HEMOGLOBIN,[2],24.73 pg
same,MEAN CORPUSCULAR HEMOGLOBIN CONCENTRATION,[2],38.77 G/DL
same,MONOCYTE,[2],1.33%
same,NEUTROPHIL,[2],9.33%
same,NUCLEATED RED BLOOD CELLS,[2],0 /100WBC
same,PLATELET COUNT,[2],1185.67 x10E3/uL
same,ALANINE AMINOTRANSFERASE,[2],45.33 u/L
same,ALBUMIN,[2],4.23 G/DL
same,ALKALINE PHOSPHATASE,[2],367.67 u/L
same,ASPARTATE AMINOTRANSFERASE,[2],79.33 u/L
same,BLOOD UREA NITROGEN,[2],14.67 mg/dL
same,CARBON DIOXIDE,[2],27 mmol/L
same,CHLORIDE,[2],99 MEQ/L
same,CHOLESTEROL,[2],76.33 mg/dL
same,CREATINE PHOSPHOKINASE,[2],268.33 u/L
same,CREATININE,[2],0.18 mg/dL
same,GLUCOSE,[2],157 mg/dL
same,LIPASE,[2],9.67 u/L
same,PHOSPHORUS,[2],15.07 mg/dL
same,POTASSIUM,[2],6.67 MEQ/L
same,SODIUM,[2],143.87 MEQ/L
same,TOTAL BILIRUBIN,[2],0.17 mg/dL
same,URIC ACID,[2],1.7 mg/dL
same,ABSOLUTE BASOPHIL,[3],0 CELLS/uL
same,ABSOLUTE EOSINOPHIL,[3],58.33 CELLS/uL
same,ABSOLUTE LYMPHOCYTE,[3],15491.67 CELLS/uL
same,ABSOLUTE MONOCYTE,[3],116.67 CELLS/uL
same,ABSOLUTE SEGMENTED NEUTROPHIL,[3],2000 CELLS/uL
same,BASOPHIL,[3],0%
same,EOSINOPHIL,[3],0.33%
same,HEMATOCRIT,[3],36.13%
same,HEMOGLOBIN,[3],14.3 G/DL
same,LYMPHOCYTE,[3],87.67%
same,MEAN CORPUSCULAR HEMOGLOBIN,[3],24 pg
same,MEAN CORPUSCULAR HEMOGLOBIN CONCENTRATION,[3],39.57 G/DL
same,MONOCYTE,[3],0.67%
same,NEUTROPHIL,[3],11.33%
same,NUCLEATED RED BLOOD CELLS,[3],0 /100WBC
same,PLATELET COUNT,[3],1288 x10E3/uL
same,ALANINE AMINOTRANSFERASE,[3],54 u/L
same,ALBUMIN,[3],4.03 G/DL
same,ALKALINE PHOSPHATASE,[3],415.33 u/L
same,ASPARTATE AMINOTRANSFERASE,[3],101 u/L
same,BLOOD UREA NITROGEN,[3],15.67 mg/dL
same,CARBON DIOXIDE,[3],26 mmol/L
same,CHLORIDE,[3],101.33 MEQ/L
same,CHOLESTEROL,[3],68.67 mg/dL
same,CREATINE PHOSPHOKINASE,[3],578.67 u/L
same,CREATININE,[3],0.21 mg/dL
same,GLUCOSE,[3],151 mg/dL
same,LIPASE,[3],9.67 u/L
same,PHOSPHORUS,[3],13.47 mg/dL
same,POTASSIUM,[3],6.54 MEQ/L
same,SODIUM,[3],146.17 MEQ/L
same,TOTAL BILIRUBIN,[3],0.13 mg/dL
same,TOTAL PROTEIN,[3],5.93 G/DL
same,URIC ACID,[3],1.8 mg/dL
